From US11559598B2, “Alcohol free, low viscosity, and high water content air freshener compositions” (Belle-Aire Fragrances, LLC, priority 2020, dated 2023)
In brackets after ≈: the same amount, converted by molar mass.

Assays:
[1] = at 25° C.; cited from earlier work
[2] = Viscosity by Brookfield Rotational Viscometer; assay type: physicochemical; conditions: 20% BAC1342 in distilled water
Description: Two of the compositions used traditional used surfactants (polysorbate 20 and octylphenol oxylate), and the third used a glycol ether (diethylene glycol mono butyl ether). The appearances of the compositions were recorded and their viscosities were measured using a Brookfield Rotational Viscometer with Spindle #1 and Rotational Speed at 12 RPM: […]

[3] = Appearance of air freshener compositions with 20% BAC1342; assay type: physicochemical; conditions: 20% BAC1342 in distilled water, without any other surfactants
Description: Two of the compositions used traditional used surfactants (polysorbate 20 and octylphenol oxylate), and the third used a glycol ether (diethylene glycol mono butyl ether). The appearances of the compositions were recorded and their viscosities were measured using a Brookfield Rotational Viscometer with Spindle #1 and Rotational Speed at 12 RPM:
Both of the prior art surfactants fail to form transparent microemulsion with 20% BAC1342 in distilled water.

| formation of transparent microemulsion [3] | SMILES | water solubility [1] [µg/mL] | viscosity (in words) [2] |
| --- | --- | --- | --- |
|  | CC(CC=O)c1ccc(C(C)(C)C)cc1 (stereo not shown) [3-(4-tert-butylphenyl)butanal] | 38 (≈ 186 µM) |  |
|  | C=C1CC/C=C(\C)CC[C@@H]2[C@@H]1CC2(C)C [Beta-caryophyllene] | 0.05 (≈ 0.245 µM) |  |
| forms clear microemulsion | CCCCOCCOCCO [diethylene glycol n-butyl ether] |  | low enough to be applied in various formats such as room sprays and plug-ins |
